Structures are written as SMILES. pIC50: −log10 of the molar value.

As usually defined, the pIC50 is −log10 of the IC50, conventionally taken in molar units. The IC50 is the midpoint of a concentration-inhibition curve.

Data set [1] deals with Leishmania donovani. The data set can be described thus: Antileishmanial activity against axenically grown amastigotes Leishmania donovani MHOM-ET-67/L82 measured after 72 hrs by inverted microscopy. Format: functional, organism-based. Conditions: MHOM-ET-67/L82, 72 h.
Data set [2] can be described thus: Selectivity index, ratio of IC50 for cytotoxicity against rat myoblast L6 cells to IC50 for antiprotozoal activity against Trypanosoma cruzi Tulahuen C2C4 intracellular amastigotes. Type of data set: toxicity, cell-based. Conditions: read-out: Selectivity Index.
The test system of data set [3] is Trypanosoma cruzi. The data set can be described thus: Antiprotozoal activity against Trypanosoma cruzi Tulahuen C2C4 intracellular amastigotes measured after 96 hrs by inverted microscopy. Format: functional, organism-based. The following applies: Tulahuen C2C4, 96 h.
A short description of data set [4]: Selectivity index, ratio of IC50 for cytotoxicity against rat myoblast L6 cells to IC50 for antileishmanial activity against axenically grown amastigotes Leishmania donovani MHOM-ET-67/L82. Format: toxicity, cell-based. The following applies: read-out: Selectivity Index.
Data set [5] can be described thus: Cytotoxicity against rat myoblast L6 cells measured after 72 hrs by inverted microscopy. Type of data set: toxicity, cell-based.
The nature of data set [6]: Selectivity index, ratio of IC50 for cytotoxicity against rat myoblast L6 cells to IC50 for antiprotozoal activity against Trypanosoma brucei rhodesiense STIB900 trypomastigotes. Format: toxicity, cell-based. The following applies: read-out: Selectivity Index.
Data set [7] relates to Plasmodium falciparum. The data set can be described thus: Antiplasmodial activity against Plasmodium falciparum NF54 intraerythrocytic forms measured after 72 hrs by 3H-hypoxanthine based liquid scintillation counting analysis. Format: functional, organism-based.
Data set [8] can be described thus: Selectivity index, ratio of IC50 for cytotoxicity against rat myoblast L6 cells to IC50 for antiplasmodial activity against Plasmodium falciparum NF54 intraerythrocytic forms. Type of data set: toxicity, cell-based. Conditions: read-out: Selectivity Index.
The subject of data set [9] is Trypanosoma brucei rhodesiense. The data set can be described thus: Antiprotozoal activity against Trypanosoma brucei rhodesiense STIB900 trypomastigotes measured after 72 to 74 hrs. Format: functional, organism-based.

For `CC1=CC[C@]23CC[C@H]4C(C)(C)CCC[C@]45C[C@]24C1=C[C@H]1C(C)(C)OC(=C(C(C)C)C3=O)[C@@]14O5`, the pIC50 in data set [1] was 4.57; in data set [3] it was 4.81; in [7], 6.05; in [9], 4.49. Also, the selectivity ratio was found to be 1.5 in data set [2], 0.9 in data set [4], 0.7 in [6] and 26.8 in data set [8]. For the same compound, in [5], the midpoint of inhibition, the IC50 at 72 h, lay at 23.9 µM.

For `CC(C)C1=C2OC(C)(C)[C@@H]3CC4[C@H](C)[C@@H](O)C[C@@]5(CC[C@H]6C(C)(C)CCC[C@]67C[C@]45[C@@]23O7)C1=O` (some centres undefined), the pIC50 in [1] is 4.39; in [3] it was 4.48; in [7], 5.59; in data set [9], 4.59. Also, the selectivity ratio in data set [2] amounted to 4.1; in data set [4], 3.3; in data set [6] it was 5.3; in data set [8], 53.1. The IC50 at 72 h in [5] is 136 µM.

For `CC(C)C1=C2OC(C)(C)[C@@H]3CC4[C@@H](C)[C@H](O)C[C@@]5(CC[C@H]6C(C)(C)CCC[C@]67C[C@]45[C@@]23O7)C1=O` (some centres undefined), the negative logarithm of the IC50 (pIC50) is 5.00 in [1], 4.72 in data set [3], 5.29 in data set [7] and 4.41 in [9]. The selectivity ratio in data set [2] was 1.9; in data set [4] it was 3.7; in data set [6], 0.9; in [8] it was 7.1. The same compound returned an IC50 at 72 h in data set [5] of 36.7 µM.

On to `CC1=C2C[C@H]3C(C)(C)OC4=C(C(C)C)C(=O)[C@@]5(C=C1)CC[C@H]1C(C)(C)CCC[C@]16C[C@]25[C@@]43O6`, for which the pIC50 was 4.84 in [1], 5.15 in data set [3], 7.52 in [7] and 4.23 in data set [9]. Further, the selectivity ratio worked out at 3.6 in data set [2], 1.9 in data set [4], 0.4 in data set [6] and 843 in [8]. In data set [5], this compound registered a half-maximal inhibitory concentration (IC50) at 72 h of 26.3 µM.

The compound `O=C(Cn1ccnc1[N+](=O)[O-])NCc1ccccc1` [BENZNIDAZOLE] had a pIC50 in data set [3] of 5.58.

`CC(C)C1=C2OC(C)(C)[C@@H]3CC4[C@H](C)[C@@H](OC(=O)CCC(=O)O)C[C@@]5(CC[C@H]6C(C)(C)CCC[C@]67C[C@]45[C@@]23O7)C1=O` (some centres undefined): the pIC50 in data set [1] was 6.36; in data set [3], 5.15; in data set [7], 5.25; in [9], 4.61. In addition, the selectivity ratio in data set [2] is 1.4; in data set [4], 22; in data set [6], 0.4; in data set [8], 1.7. In [5], this compound had an IC50 at 72 h of 9.7 µM.

`CC(C)C1=C2OC(C)(C)[C@@H]3CC4[C@@H](C)[C@H](B(F)F)C[C@@]5(CC[C@H]6C(C)(C)CCC[C@]67C[C@]45[C@@]23O7)C1=O` (some centres undefined): the pIC50 was 5.32 in data set [1], 4.92 in data set [3], 6.10 in [7] and 4.61 in data set [9]. Besides, the selectivity ratio in data set [2] is 2.9; in data set [4], 7.3; in [6], 1.4; in data set [8], 43.8. This compound yielded an IC50 at 72 h in [5] of 35 µM.

Take `CC1=CC[C@]23CC[C@H]4C(C)(C)CCC[C@]45C[C@]24[C@@]1(O)C[C@H]1C(C)(C)OC(=C(C(C)C)C3=O)[C@@]14O5`: the pIC50 in data set [1] is 5.22; in data set [3], 5.08; in data set [7], 7.10; in data set [9] it was 5.00. Further, the selectivity ratio in data set [2] was found to be 0.8; in data set [4] it was 1.1; in [6] it was 0.7; in data set [8], 80. 6.9 µM corresponded to half-maximal inhibition in data set [5] (IC50 at 72 h).

Source of the values: ChEMBL document CHEMBL6177970, “Semisynthetic Derivatives of Perovskone: Development of a Promising Class of Antiprotozoal Lead Compounds” (J Nat Prod, 2025).
